Test results published in article PMC12518634, “The noncanonical function of liver-type phosphofructokinase potentiates the efficacy of HDAC inhibitors in cancer” (Signal Transduction and Targeted Therapy, 2025).
pEC50: −log10 of the molar value. Where two headings read alike, the source gives them in different places.

Key:
783C-6 = test: High-throughput drug screen, CellTiter-Glo viability, 72 h; assay type: cell-based, human; design: AUC: scale not given here; conditions: for DSS: DSS calculated from the dose-response curve; for MIN: MIN of the fitted dose-response curve; for AUC: area under the dose-response curve; for SLOPE: slope of the fitted dose-response curve; for pEC50: 72 h, read-out: EC50
Method: (§1) The cells were seeded and incubated with a gradient of concentrations of drugs for 72 h, after which the cell viability was assessed (Supplementary Fig. 1a). The drug library primarily comprises epigenetic drugs, including HDAC inhibitors, DNA methyltransferase inhibitors, and histone demethylase inhibitors, as well as conventional chemotherapies and kinase inhibitors (Supplementary Fig. 1b and Supplementary Table 1). […] To identify novel therapeutics against CCA, we conducted a high-throughput screen employing PerkinElmer’s integrated robotic Explorer G3 workstations. […] Following dilution to five specified concentrations, drugs were dispensed into 96-well plates in the sequence detailed in Supplementary Fig. 1a. The CCA cell lines were subsequently plated in 384-well plates at a density of 3000 cells per well in a 20 μL total volume. After a 24-h incubation, the compounds were added to the wells and incubated for 72 h. We then quantified cell viability via the CellTiter-Glo luminescent assay according to the manufacturer’s protocol. Signal detection was carried out on a Synergy2 plate reader operated by Gen5 software (BioTek). For data processing, the raw luminescence data were processed through the Breeze pipeline for curve fitting, yielding quality control metrics (e.g., Z-factors) and drug response parameters (AUC and DSS), as adapted from previous work.[54] Drug responses were evaluated on the basis of the drug sensitivity score (DSS), and a cutoff of ≥10 was used to define efficacy. The complete drug library and screening dataset are available in Supplementary Tables 1-3.
(§2) Supplementary Fig. 1. A high-throughput drug screen to identify drugs targeting CCA. a Schematic representation of the drug screening protocol. […] Each drug was tested at five different concentrations (10, 1, 0.1, 0.01, and 0.001 μM), and each treatment was replicated twice. b Classification of drugs used for screening.

1405R3 = test: as above; assay type: cell-based, human; design: AUC: scale not given here; conditions: 1405R3 DSRT analysis; for AUC: area under the dose-response curve; for MIN: lower asymptote of fitted dose-response curve; for SLOPE: slope of fitted dose-response curve; for pEC50: fitted dose-response curve, Min.Conc.tested 1, Max.Conc.tested 10000, CellTiter-Glo, 72 h, read-out: EC50
Method: as §1, §2

[1] = 783C-6 DSRT analysis, CellTiter-Glo viability, fitted dose-response curve, Min.Conc.tested 1, Max.Conc.tested 10000

Row | SMILES | DSS (783C-6; 783C-6 DSRT analysis) | MIN (783C-6; 783C-6 DSRT analysis) | AUC (783C-6; 783C-6 DSRT analysis) | SLOPE (783C-6; 783C-6 DSRT analysis) | DSS (1405R3) | AUC (1405R3) | MIN (1405R3) | SLOPE (1405R3) | pEC50 (783C-6; [1]) | pEC50 (1405R3) | pEC50 (783C-6; Homo sapiens) | pEC50 (1405R3; Homo sapiens)
1 | c1cncc(-c2cn[nH]n2)c1 [3-TYP] | 0 | 94.7 | 2.5 | -0.6 | 0 | 4.8 | 96.9 | -0.1 | – | – | – | –
2 | Cn1cc(-c2ccc(S(=O)(=O)n3ccc(/C=C/C(=O)Nc4ccccc4N)c3)cc2)cn1 [4SC-202] | 6.7 | 48.6 | 57 | -2.5 | 3.9 | 35.8 | 57.9 | -2.3 | 6.11 | 5.85 | – | –
3 | O=C(O[C@@H]1Cc2c(O)cc(O)cc2O[C@@H]1c1cc(O)c(O)c(O)c1)c1cc(O)c(O)c(O)c1 [(-)-Epigallocatechin Gallate] | 0 | 75.7 | 22.9 | – | 0 | 0.7 | 97.6 | – | – | – | – | –
4 | O=C(NO)c1cnc(NC2(c3ccccc3)CC2)nc1 [ACY-738] | 5.2 | 24.1 | 46.6 | – | 5 | 44.6 | 25.2 | – | – | – | 5.61 | 5.59
5 | O=C(NO)c1cnc(NC2(c3cccc(F)c3)CCCCC2)nc1 [ACY-775] | 0 | 97.3 | 2.4 | -0.3 | 0 | 0.4 | 98.9 | -0.9 | – | – | – | –
6 | Cc1csc(-c2nnc(Nc3ccc(Oc4ncccc4-c4ccnc(N)n4)cc3)c3ccccc23)c1 [AMG-900] | 4.1 | 63.4 | 52.5 | – | 0.2 | 29 | 82.3 | – | – | – | 6.32 | –
7 | N[C@@H]1CCCN(c2c(/C=C3\SC(=O)NC3=O)cccc2-c2ccccc2)C1 [AZD1208] | 0 | 87.6 | 19.2 | -0.1 | 0 | 16 | 87 | -0.2 | – | – | – | –
8 | CN(C)Cc1c(C(=O)NCCOc2ccc(C(=O)NO)cc2)oc2ccccc12 [Abexinostat] | 5.3 | 6.1 | 48.2 | – | 6 | 53 | 14.8 | – | – | – | 5.50 | 5.62
9 | COc1cc(Nc2ncc3c(n2)-c2ccc(Cl)cc2C(c2c(F)cccc2OC)=NC3)ccc1C(=O)O [Alisertib] | 3.7 | 73.6 | 52.1 | – | 0.1 | 15.4 | 89 | – | – | – | 6.97 | –
10 | CCN1CCN(C(=O)Cc2ccc(Nc3ncc(F)c(Nc4ccc(C(=O)Nc5ccccc5Cl)cc4)n3)cc2)CC1 [Aurora A Inhibitor I] | 4.6 | 32 | 41.2 | -2.5 | 3 | 28 | 50 | -2.5 | 5.60 | 5.55 | – | –
11 | CNC(=O)c1ccccc1Sc1ccc2c(/C=C/c3ccccn3)n[nH]c2c1 [Axitinib] | 0 | 90.6 | 2.8 | – | 0 | 6.8 | 91.1 | – | – | – | – | –
12 | Nc1ccccc1NC(=O)c1cnccn1 [BG45] | 2.2 | 83.6 | 49 | -0.3 | 0.1 | 36.3 | 83.6 | -0.1 | – | – | – | –
13 | CCN1CCN(c2ccc(Nc3cc(N(C)C(=O)Nc4c(Cl)c(OC)cc(OC)c4Cl)ncn3)cc2)CC1 [BGJ398] | 8 | 7.1 | 70 | – | 5.5 | 50.1 | 7.2 | – | – | – | 5.75 | 5.53
14 | CC[C@@H]1C(=O)N(C)c2cnc(Nc3ccc(C(=O)NC4CCN(C)CC4)cc3OC)nc2N1C1CCCC1 [BI 2536] | 8.8 | 52.4 | 90 | – | 11.6 | 98.4 | 6.7 | – | – | – | 6.86 | 6.05
15 | COc1cc2nc(N3CCCN(C)CC3)nc(NC3CCN(Cc4ccccc4)CC3)c2cc1OC [BIX 01294] | 4.7 | 28 | 42.4 | – | 4.6 | 42.6 | 12.3 | – | – | – | 5.58 | 5.47
16 | Nc1ccccc1NC(=O)CCCCCCC(=O)Nc1ccccc1 [BML-210] | 0 | 97 | 3.9 | -2.5 | 0 | 5.7 | 96.1 | -0.1 | – | – | – | –
17 | CC(=O)Nc1ccc(C(=O)Nc2ccc(F)cc2N)cc1 [BRD3308] | 0 | 86.9 | 3.9 | -1 | 0 | 12.9 | 91.7 | -0.1 | – | – | – | –
18 | O=C(NO)c1cccc(C(=O)NCCc2ccccc2)c1 [BRD73954] | 0 | 90.9 | 14 | -0.1 | 0 | 13.2 | 91.5 | -0.1 | – | – | – | –
19 | CCN(CCCOc1ccc2c(Nc3cc(CC(=O)Nc4cccc(F)c4)n[nH]3)ncnc2c1)CCOP(=O)(O)O [Barasertib] | 0 | 91.7 | 11.5 | – | 0 | 0.1 | 100 | – | – | – | – | –
20 | O=C(O)CCCc1ccccc1 [Benzenebutyric acid] | 0 | 96.8 | 1.4 | -0.7 | 0 | 2.3 | 94.7 | -0.7 | – | – | – | –
21 | O=S(=O)(Cl)c1ccc(-c2ccccc2)cc1 [Biphenyl-4-sulfonyl chloride] | 0 | 88.2 | 18.3 | -0.1 | 0 | 6.3 | 94 | -0.2 | – | – | – | –
22 | CC(C)(C)OC(=O)Nc1ccc(-c2cc(C(=O)NCCCCCCC(=O)NO)no2)cc1 [CAY10603] | 4.4 | 30.8 | 39.5 | -2.5 | 5 | 45.4 | 20.6 | -2.5 | 5.56 | 5.56 | – | –
23 | COc1cc2c(NC3CCN(C)CC3)cc(-c3ccc(C)o3)nc2cc1OCCCN1CCCC1 [CM272] | 13.1 | 28.5 | 107.8 | -2.5 | 6.8 | 59.8 | 15.5 | -2.5 | 6.51 | 5.70 | – | –
24 | CCS(=O)(=O)N1CCC([C@@H](C)n2c(C)c(C(=O)NCc3c(OC)cc(C)[nH]c3=O)c3ccccc32)CC1 [CPI-169] | 0 | 97.5 | 1 | – | 0 | 0.1 | 100 | – | – | – | – | –
25 | Cc1sc2c(c1C)C(c1ccc(Cl)cc1)=N[C@@H](CC(N)=O)c1nnc(C)n1-2 [CPI-203] | 0 | 93.6 | 3.2 | -0.7 | 13 | 111.9 | 33.4 | -1.2 | – | 6.68 | – | –
26 | COc1cc(C)[nH]c(=O)c1CNC(=O)c1c(C)n([C@H](C)C2CCOCC2)c2ccccc12 [CPI-360] | 0.1 | 84.8 | 36.1 | – | 0 | 11.9 | 92.3 | – | – | – | – | –
27 | Cc1noc2c1-c1ccccc1C(c1ccc(Cl)cc1)=N[C@H]2CC(N)=O [CPI-0610] | 0.7 | 84.7 | 34.4 | – | 6.7 | 64.6 | 49.2 | – | – | – | – | 6.25
